According to ChEMBL document CHEMBL3992518, “Peptide Macrocycle Inhibitor of Coagulation Factor XII with Subnanomolar Affinity and High Target Selectivity” (J Med Chem, 2017):
*1 amine or outer side, *2 acyl side, *3 side chain or, on linkers, in order; H or OH if unused. Where a SMILES comes first, the peptide text is derived from it. Bridges are numbered along the chain shown (N, C = ends). [ ]: non-standard residue; d: D form. TATA = O=C(CC[*:1])N1CN(C(=O)CC[*:2])CN(C(=O)CC[*:3])C1; tBuAla = CC(C)(C)C[C@H](N)C(=O)O

Target: T1, Coagulation factor XII (Homo sapiens, UniProt P00748)
T1 sequence (P00748 whole entry): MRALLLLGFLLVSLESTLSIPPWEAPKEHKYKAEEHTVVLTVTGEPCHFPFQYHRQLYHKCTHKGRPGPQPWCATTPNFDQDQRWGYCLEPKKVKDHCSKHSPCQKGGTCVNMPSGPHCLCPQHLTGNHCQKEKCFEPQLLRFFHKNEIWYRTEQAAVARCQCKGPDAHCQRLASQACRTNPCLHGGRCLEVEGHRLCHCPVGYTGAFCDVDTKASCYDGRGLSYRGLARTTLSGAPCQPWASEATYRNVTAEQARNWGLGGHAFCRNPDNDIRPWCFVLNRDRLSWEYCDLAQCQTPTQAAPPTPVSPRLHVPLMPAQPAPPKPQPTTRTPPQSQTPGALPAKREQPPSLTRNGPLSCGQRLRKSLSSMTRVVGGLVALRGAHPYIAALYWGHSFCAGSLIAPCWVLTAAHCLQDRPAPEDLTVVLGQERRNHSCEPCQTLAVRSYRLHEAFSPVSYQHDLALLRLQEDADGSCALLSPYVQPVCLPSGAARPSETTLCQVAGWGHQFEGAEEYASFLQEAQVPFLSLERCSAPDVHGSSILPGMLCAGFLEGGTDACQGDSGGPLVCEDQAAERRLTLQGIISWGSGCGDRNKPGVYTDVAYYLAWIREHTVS
Experiment: Inhibition of human beta factor 12a using fluorogenic substrate Boc-Gln-Gly-Arg-AMC preincubated for 10 mins followed by addition of substrate measured every min for 30 mins

| Ki [nM] | SMILES |
| --- | --- |
| > 3000 | CSCC[C@@H]1NC(=O)[C@H](CCCNC(=N)N)NC(=O)[C@H](Cc2ccccc2)NC(=O)[C@@H](NC(=O)[C@@H](N)CCCNC(=N)N)CSCCC(=O)N2CN3CN(C2)C(=O)CCSC[C@H](NC(=O)[C@@H]2CCCN2C1=O)C(=O)N[C@@H](CCCNC(=N)N)C(=O)N[C@@H](CCC(N)=O)C(=O)N[C@@H](CC(C)C)C(=O)N[C@@H](CCCNC(=N)N)C(=O)N[C@H](C(=O)N[C@@H](CCCNC(=N)N)C(=O)N[C@@H](Cc1c[nH]c2ccccc12)C(=O)O)CSCCC3=O (H-RCFRMPCRQLRCRW-OH; linker 2-7-12 via TATA) |
| 290 | CC(C)C[C@@H]1NC(=O)[C@H](CCC(N)=O)NC(=O)[C@H](CCCNC(=N)N)NC(=O)[C@@H]2CSCCC(=O)N3CN(CN(C3)C(=O)CCSC[C@H](NC(=O)[C@@H](N)CCCNC(=N)N)C(=O)N[C@@H](CCC3CCCCC3)C(=O)N[C@@H](CCCNC(=N)N)C(=O)N[C@@H](CC(C)C)C(=O)N3CCC[C@H]3C(=O)N2)C(=O)CCSC[C@@H](C(=O)N[C@@H](CCCNC(=N)N)C(=O)N[C@@H](Cc2c[nH]c3ccccc23)C(=O)O)NC(=O)[C@H](CCCNC(=N)N)NC1=O |
| 6.8 | CC(C)C[C@@H]1NC(=O)[C@H](CCC(N)=O)NC(=O)[C@H](CCCNC(=N)N)NC(=O)[C@@H]2CSCCC(=O)N3CN(CN(C3)C(=O)CCSC[C@H](NC(=O)[C@@H](N)CCCNC(=N)N)C(=O)N[C@@H](Cc3csc4ccccc34)C(=O)N[C@@H](CCCNC(=N)N)C(=O)N[C@@H](CC(C)C)C(=O)N3CCC[C@H]3C(=O)N2)C(=O)CCSC[C@@H](C(=O)N[C@@H](CCCNC(=N)N)C(=O)N[C@@H](Cc2c[nH]c3ccccc23)C(=O)O)NC(=O)[C@H](CCCNC(=N)N)NC1=O |
| 92 | CC(C)C[C@@H]1NC(=O)[C@H](CCC(N)=O)NC(=O)[C@H](CCCNC(=N)N)NC(=O)[C@@H]2CSCCC(=O)N3CN(CN(C3)C(=O)CCSC[C@H](NC(=O)[C@@H](N)CCCNC(=N)N)C(=O)N[C@@H](Cc3ccc(I)cc3)C(=O)N[C@@H](CCCNC(=N)N)C(=O)N[C@@H](CC(C)C)C(=O)N3CCC[C@H]3C(=O)N2)C(=O)CCSC[C@@H](C(=O)N[C@@H](CCCNC(=N)N)C(=O)N[C@@H](Cc2c[nH]c3ccccc23)C(=O)O)NC(=O)[C@H](CCCNC(=N)N)NC1=O |
| > 3000 | CC(C)C[C@@H]1NC(=O)[C@H](Cc2cnc[nH]2)NC(=O)[C@H](CCCNC(=N)N)NC(=O)[C@@H]2CSCCC(=O)N3CN(CN(C3)C(=O)CCSC[C@H](NC(=O)[C@@H](N)CCCNC(=N)N)C(=O)N[C@@H](Cc3ccccc3)C(=O)N[C@@H](CCCNC(=N)N)C(=O)N[C@@H](CC(C)C)C(=O)N3CCC[C@H]3C(=O)N2)C(=O)CCSC[C@@H](C(=O)N[C@@H](CCCNC(=N)N)C(=O)N[C@@H](Cc2c[nH]c3ccccc23)C(=O)O)NC(=O)[C@H](CCCNC(=N)N)NC1=O (H-RCFRLPCRHLRCRW-OH; linker 2-7-12 via TATA) |
| 34.4 | CC(C)C[C@@H]1NC(=O)[C@H](CCC(N)=O)NC(=O)[C@H](CCCNC(=N)N)NC(=O)[C@@H]2CSCCC(=O)N3CN(CN(C3)C(=O)CCSC[C@@H](C(=O)N[C@@H](CCCNC(=N)N)C(=O)O)NC(=O)[C@H](CCCNC(=N)N)NC1=O)C(=O)CCSC[C@H](NC(=O)[C@H](N)CCCNC(=N)N)C(=O)N[C@@H](Cc1ccccc1)C(=O)N[C@@H](CCCNC(=N)N)C(=O)N[C@@H](CC(C)C)C(=O)N1CCC[C@H]1C(=O)N2 |
| > 1000 | CC(C)C[C@@H]1NC(=O)[C@H](CCC(N)=O)NC(=O)[C@H](CCCNC(=N)N)NC(=O)[C@@H]2CSCCC(=O)N3CN(CN(C3)C(=O)CCSC[C@H](NC(=O)[C@@H](N)CCCNC(=N)N)C(=O)N[C@@H](Cc3ccc(-c4ccccc4)cc3)C(=O)N[C@@H](CCCNC(=N)N)C(=O)N[C@@H](CC(C)C)C(=O)N3CCC[C@H]3C(=O)N2)C(=O)CCSC[C@@H](C(=O)N[C@@H](CCCNC(=N)N)C(=O)N[C@@H](Cc2c[nH]c3ccccc23)C(=O)O)NC(=O)[C@H](CCCNC(=N)N)NC1=O |
| 114 | CC(C)C[C@@H]1NC(=O)[C@H](CCC(N)=O)NC(=O)[C@H](CCCNC(=N)N)NC(=O)[C@@H]2CSCCC(=O)N3CN(CN(C3)C(=O)CCSC[C@H](NC(=O)[C@@H](N)CCCNC(=N)N)C(=O)N[C@@H](C/C=C/c3ccccc3)C(=O)N[C@@H](CCCNC(=N)N)C(=O)N[C@@H](CC(C)C)C(=O)N3CCC[C@H]3C(=O)N2)C(=O)CCSC[C@@H](C(=O)N[C@@H](CCCNC(=N)N)C(=O)N[C@@H](Cc2c[nH]c3ccccc23)C(=O)O)NC(=O)[C@H](CCCNC(=N)N)NC1=O |
| 57 | CC(C)C[C@@H]1NC(=O)[C@H](CCC(N)=O)NC(=O)[C@H](CCCNC(=N)N)NC(=O)[C@@H]2CSCCC(=O)N3CN(CN(C3)C(=O)CCSC[C@H](NC(=O)[C@@H](N)CCCNC(=N)N)C(=O)N[C@@H](Cc3ccncc3)C(=O)N[C@@H](CCCNC(=N)N)C(=O)N[C@@H](CC(C)C)C(=O)N3CCC[C@H]3C(=O)N2)C(=O)CCSC[C@@H](C(=O)N[C@@H](CCCNC(=N)N)C(=O)N[C@@H](Cc2c[nH]c3ccccc23)C(=O)O)NC(=O)[C@H](CCCNC(=N)N)NC1=O |
| 104 | CC(C)C[C@@H]1NC(=O)[C@H](CCC(N)=O)NC(=O)[C@H](CCCNC(=N)N)NC(=O)[C@@H]2CSCCC(=O)N3CN(CN(C3)C(=O)CCSC[C@H](NC(=O)[C@@H](N)CCCNC(=N)N)C(=O)N[C@@H](Cc3ccccc3)C(=O)N[C@@H](CCCNC(=N)N)C(=O)N[C@@H](CC(C)C)C(=O)N[C@@H](CC(N)=O)C(=O)N2)C(=O)CCSC[C@@H](C(=O)N[C@@H](CCCNC(=N)N)C(=O)N[C@@H](Cc2c[nH]c3ccccc23)C(=O)O)NC(=O)[C@H](CCCNC(=N)N)NC1=O (H-RCFRLNCRQLRCRW-OH; linker 2-7-12 via TATA) |
| 28 | CC(C)C[C@@H]1NC(=O)[C@H](CCC(N)=O)NC(=O)[C@H](CCCNC(=N)N)NC(=O)[C@@H]2CSCCC(=O)N3CN(CN(C3)C(=O)CCSC[C@H](NC(=O)[C@@H](N)CCCNC(=N)N)C(=O)N[C@@H](CC(C)C)C(=O)N[C@@H](CCCNC(=N)N)C(=O)N[C@@H](CC(C)C)C(=O)N3CCC[C@H]3C(=O)N2)C(=O)CCSC[C@@H](C(=O)N[C@@H](CCCNC(=N)N)C(=O)N[C@@H](Cc2c[nH]c3ccccc23)C(=O)O)NC(=O)[C@H](CCCNC(=N)N)NC1=O (H-RCLRLPCRQLRCRW-OH; linker 2-7-12 via TATA) |
| > 3000 | CC(C)C[C@@H]1NC(=O)[C@H](CCC(N)=O)NC(=O)[C@H](CCCNC(=N)N)NC(=O)[C@@H]2CSCCC(=O)N3CN(CN(C3)C(=O)CCSC[C@H](NC(=O)[C@@H](N)CCCNC(=N)N)C(=O)N[C@@H](Cc3ccccc3)C(=O)N[C@@H](CCCNC(=N)N)C(=O)N[C@@H](C)C(=O)N3CCC[C@H]3C(=O)N2)C(=O)CCSC[C@@H](C(=O)N[C@@H](CCCNC(=N)N)C(=O)N[C@@H](Cc2c[nH]c3ccccc23)C(=O)O)NC(=O)[C@H](CCCNC(=N)N)NC1=O (H-RCFRAPCRQLRCRW-OH; linker 2-7-12 via TATA) |
| 890 | CC[C@H](C)[C@@H]1NC(=O)[C@H](CCCNC(=N)N)NC(=O)[C@H](Cc2ccccc2)NC(=O)[C@@H](NC(=O)[C@@H](N)CCCNC(=N)N)CSCCC(=O)N2CN3CN(C2)C(=O)CCSC[C@H](NC(=O)[C@@H]2CCCN2C1=O)C(=O)N[C@@H](CCCNC(=N)N)C(=O)N[C@@H](CCC(N)=O)C(=O)N[C@@H](CC(C)C)C(=O)N[C@@H](CCCNC(=N)N)C(=O)N[C@H](C(=O)N[C@@H](CCCNC(=N)N)C(=O)N[C@@H](Cc1c[nH]c2ccccc12)C(=O)O)CSCCC3=O (H-RCFRIPCRQLRCRW-OH; linker 2-7-12 via TATA) |
| 132 | CC(C)C[C@@H]1NC(=O)[C@H](CCC(N)=O)NC(=O)[C@H](CCCNC(=N)N)NC(=O)[C@@H]2CSCCC(=O)N3CN(CN(C3)C(=O)CCSC[C@H](NC(=O)[C@@H](N)CCCNC(=N)N)C(=O)N[C@@H](C)C(=O)N[C@@H](CCCNC(=N)N)C(=O)N[C@@H](CC(C)C)C(=O)N3CCC[C@H]3C(=O)N2)C(=O)CCSC[C@@H](C(=O)N[C@@H](CCCNC(=N)N)C(=O)N[C@@H](Cc2c[nH]c3ccccc23)C(=O)O)NC(=O)[C@H](CCCNC(=N)N)NC1=O (H-RCARLPCRQLRCRW-OH; linker 2-7-12 via TATA) |
| > 3000 | CC(C)C[C@@H]1NC(=O)[C@H](CCC(N)=O)NC(=O)[C@H](CCCNC(=N)N)NC(=O)[C@@H]2CSCCC(=O)N3CN(CN(C3)C(=O)CCSC[C@H](NC(=O)[C@@H](N)CCCNC(=N)N)C(=O)N[C@@H](Cc3ccccc3)C(=O)N[C@@H](CCCNC(=N)N)C(=O)N[C@@H](CC(C)(C)C)C(=O)N3CCC[C@H]3C(=O)N2)C(=O)CCSC[C@@H](C(=O)N[C@@H](CCCNC(=N)N)C(=O)N[C@@H](Cc2c[nH]c3ccccc23)C(=O)O)NC(=O)[C@H](CCCNC(=N)N)NC1=O (H-RCFR[tBuAla]PCRQLRCRW-OH; linker 2-7-12 via TATA) |
| 1.64 | CC(C)C[C@@H]1NC(=O)[C@H](CCC(N)=O)NC(=O)[C@H](CCCNC(=N)N)NC(=O)[C@@H]2CSCCC(=O)N3CN(CN(C3)C(=O)CCSC[C@H](NC(=O)[C@@H](N)CCCNC(=N)N)C(=O)N[C@@H](Cc3ccc([N+](=O)[O-])cc3)C(=O)N[C@@H](CCCNC(=N)N)C(=O)N[C@@H](CC(C)C)C(=O)N3CCC[C@H]3C(=O)N2)C(=O)CCSC[C@@H](C(=O)N[C@@H](CCCNC(=N)N)C(=O)N[C@@H](Cc2c[nH]c3ccccc23)C(=O)O)NC(=O)[C@H](CCCNC(=N)N)NC1=O |
